Measured values taken from patent US20260132129A1 (Genesis Therapeutics, Inc., priority 2022, published 2026).

Molecular target: T1, PI3Kα H1047R (T47D cells) (Homo sapiens, UniProt P42336, H1047R)
T1 construct: endogenous in cells; host or cells: T47D cells
Test: PI3Kα cellular assay: pAKT HTRF in T47D cells after EGF stimulation
Type: cell-based
Conditions: for IC50: T47D cells (PI3Kα H1047R), pAKT S473 HTRF
Experimental: SKBR3 or T47D cells are seeded in DMEM containing 10% FBS at 25k cells/well into 96-well cell culture format. Cells are incubated overnight at 37° C. in a 5% CO2 incubator and the following day cell media is aspirated, adherent cells are washed 1× with room temperature PBS prior to serum-free media application. Cells are returned to 37° C. 5% CO2 incubator and incubated a further 16 hrs. Compounds are added to serum starved adherent cells with a top dose of 10,000 nM and 3× multiple dose reductions for a minimum dose of 0.5 nM diluted in DMSO. Cell/compound incubation continues for 1 hr in a 37° C., 5% CO2 incubator prior to 10 minute PIK3CA stimulation with 20 ng/ml EGF. Cells treated with 0.1% DMSO and 20 ng/mL EGF are employed as negative control, cells treated with 10 uM Alpelisib and 20 ng/mL EGF are employed as a positive control. After 10 mins, plates are removed from incubator and cells are lysed with buffer and shaking 45 minutes. […] 384 well plate is left overnight at room temperature before reading HTRF on an Envision plate reader.
ND denotes value not determined with that assay for the specified compound; • for T47D (H1047R) selectivity over SKBR3 (WT): A denotes >20-fold; B denotes 20-fold≥value>5-fold; C denotes ≤5-fold. ND denotes value not determined with that assay for the specified compound; and • for T47D pAKT lipophilic efficiency (LiPE): A denotes >4; B denotes 4≥value>2; C denotes ≤2. ND denotes value not determined with that assay for the specified compound.

[1] = 1 hr compound, 20 ng/ml EGF 10 min
[2] = selectivity T47D (H1047R) over SKBR3 (WT), pAKT HTRF
[3] = selectivity of T47D (H1047R) over SKBR3 (WT) pAKT IC50

T1 sequence (P42336 whole entry H1047R): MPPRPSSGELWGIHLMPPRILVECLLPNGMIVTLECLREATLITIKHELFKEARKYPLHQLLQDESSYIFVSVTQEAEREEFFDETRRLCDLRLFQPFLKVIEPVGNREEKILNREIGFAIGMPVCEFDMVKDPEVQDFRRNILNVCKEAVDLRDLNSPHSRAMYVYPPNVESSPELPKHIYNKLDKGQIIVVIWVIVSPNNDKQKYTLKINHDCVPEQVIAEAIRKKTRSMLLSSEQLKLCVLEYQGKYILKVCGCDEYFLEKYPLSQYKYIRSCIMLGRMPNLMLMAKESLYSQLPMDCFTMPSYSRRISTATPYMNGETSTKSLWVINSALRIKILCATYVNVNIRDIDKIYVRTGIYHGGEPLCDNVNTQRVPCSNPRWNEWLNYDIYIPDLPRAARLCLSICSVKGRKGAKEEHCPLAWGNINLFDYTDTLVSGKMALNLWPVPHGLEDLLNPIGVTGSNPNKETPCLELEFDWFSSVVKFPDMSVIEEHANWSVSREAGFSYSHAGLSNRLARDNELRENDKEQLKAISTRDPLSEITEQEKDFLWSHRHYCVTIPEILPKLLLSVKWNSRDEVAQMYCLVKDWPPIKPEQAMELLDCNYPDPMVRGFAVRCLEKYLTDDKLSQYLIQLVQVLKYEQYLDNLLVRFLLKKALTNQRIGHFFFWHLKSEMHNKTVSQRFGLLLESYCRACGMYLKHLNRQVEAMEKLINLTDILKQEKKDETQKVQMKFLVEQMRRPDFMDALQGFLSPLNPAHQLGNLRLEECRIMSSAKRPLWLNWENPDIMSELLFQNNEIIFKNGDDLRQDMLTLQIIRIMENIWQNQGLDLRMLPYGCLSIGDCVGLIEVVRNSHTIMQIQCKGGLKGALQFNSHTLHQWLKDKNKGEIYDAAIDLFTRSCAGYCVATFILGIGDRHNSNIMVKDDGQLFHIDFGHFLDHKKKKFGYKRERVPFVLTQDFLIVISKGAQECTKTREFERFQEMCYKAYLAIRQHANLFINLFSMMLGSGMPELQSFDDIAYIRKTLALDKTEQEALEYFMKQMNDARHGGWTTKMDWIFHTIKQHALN
T1 sequence (P27986 whole entry partner): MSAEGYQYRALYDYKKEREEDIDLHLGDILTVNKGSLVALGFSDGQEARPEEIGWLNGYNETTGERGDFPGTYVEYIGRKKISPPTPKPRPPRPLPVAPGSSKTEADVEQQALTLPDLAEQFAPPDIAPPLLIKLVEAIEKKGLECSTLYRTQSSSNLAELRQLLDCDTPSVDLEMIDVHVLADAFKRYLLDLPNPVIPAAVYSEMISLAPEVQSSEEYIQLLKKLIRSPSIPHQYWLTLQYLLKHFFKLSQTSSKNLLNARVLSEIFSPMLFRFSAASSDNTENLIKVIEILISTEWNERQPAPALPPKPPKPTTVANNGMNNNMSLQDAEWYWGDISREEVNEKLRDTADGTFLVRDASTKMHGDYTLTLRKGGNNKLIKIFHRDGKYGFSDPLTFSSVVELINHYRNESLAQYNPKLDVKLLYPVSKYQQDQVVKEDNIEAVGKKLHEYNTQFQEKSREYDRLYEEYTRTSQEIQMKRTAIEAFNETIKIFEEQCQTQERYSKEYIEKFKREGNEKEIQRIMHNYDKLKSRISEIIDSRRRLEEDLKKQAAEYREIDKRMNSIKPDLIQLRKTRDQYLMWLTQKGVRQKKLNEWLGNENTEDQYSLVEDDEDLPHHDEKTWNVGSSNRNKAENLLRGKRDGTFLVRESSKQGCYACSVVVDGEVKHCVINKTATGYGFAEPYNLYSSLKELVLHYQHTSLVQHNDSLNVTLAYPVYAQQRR

Row | IC50 [1] [µM] | T47D pAKT S473 HTRF IC50 (H1047R): T47D (H1047R) selectivity over SKBR3 (WT) [2] | T47D pAKT S473 HTRF IC50 (H1047R): T47D (H1047R) selectivity over SKBR3 (WT) [3] | IC50 (EGF stimulation) [µM] | SMILES
1 | > 2 | C (C denotes ≤5-fold) |  |  | Cc1cc([C@@H](C)Nc2ccccc2)c2nc(-c3cc(C)c4oc(=O)[nH]c4c3)cc(=O)n2c1 (single isomer, unassigned) [Compound 29]
2 | > 2 | C (C denotes ≤5-fold) |  |  | Cc1cc(C(C)Nc2ccccc2C(=O)O)c2nc(-c3ccncc3)cc(=O)n2c1 (single isomer, unassigned) [Compound 268]
3 | < 0.1 | A (A denotes >20-fold) |  |  | Cc1cc(C(C)Nc2ccccc2C(=O)O)c2nc(-c3ccncc3)cc(=O)n2c1 (single isomer, unassigned) [Compound 269]
4 | 0.1 to 0.5 | A (A denotes >20-fold) |  |  | Cc1cc(C(C)Nc2ccccc2C(=O)O)c2nc(-c3ccc(CN4CCN(C(=O)C5CC5)CC4)c(F)c3)cc(=O)n2c1 (single isomer, unassigned) [Compound 420]
5 | > 2 | C (C denotes ≤5-fold) |  |  | Cc1cc(C(C)Nc2ccccc2C(=O)O)c2nc(-c3ccc(CN4CCN(C(=O)C5CC5)CC4)c(F)c3)cc(=O)n2c1 (single isomer, unassigned) [Compound 421]
6 | < 0.1 | A (A denotes >20-fold) |  |  | Cc1cc([C@@H](C)Nc2ccccc2C(=O)O)c2nc(-c3ccc(F)cc3)cc(=O)n2c1 (single isomer, unassigned) [Compound 424]
7 | > 2 | C (C denotes ≤5-fold) |  |  | Cc1cc(C(C)Nc2ccccc2C(N)=O)c2nc(-c3ccncc3)cc(=O)n2c1 (single isomer, unassigned) [Compound 439]
8 | 0.5 to 2 | B (B denotes 20-fold≥value>5-fold) |  |  | Cc1cc([C@H](C)Nc2ccccc2C(N)=O)c2nc(-c3ccncc3)cc(=O)n2c1 (single isomer, unassigned) [Compound 440]
9 | < 0.1 | A (A denotes >20-fold) |  |  | Cc1cc([C@@H](C)Nc2ccccc2C(=O)O)c2nc(N3C[C@H](C)C[C@H](C)C3)cc(=O)n2c1 (single isomer, unassigned) [Compound 512]
10 | > 2 | C (C denotes ≤5-fold) |  |  | Cc1cc(C(C)Nc2ccccc2C(=O)O)c2nc(-c3ccc4c(c3)c(N)nn4C)cc(=O)n2c1 (single isomer, unassigned) [Compound 535]
11 | < 0.1 | A (A denotes >20-fold) |  |  | Cc1cc([C@H](C)Nc2ccccc2C(=O)O)c2nc(-c3ccc4c(c3)c(N)nn4C)cc(=O)n2c1 (single isomer, unassigned) [Compound 536]
12 | > 2 | C (C denotes ≤5-fold) |  |  | Cc1cc([C@@H](C)Nc2ccccc2C(=O)O)c2nc(N3C[C@@H]4CC(F)(F)C[C@@H]4C3)cc(=O)n2c1 (single isomer, unassigned) [Compound 582]
13 | < 0.1 | A (A denotes >20-fold) |  |  | Cc1cc([C@H](C)Nc2ccccc2C(=O)O)c2nc(N3C[C@@H]4CC(F)(F)C[C@@H]4C3)cc(=O)n2c1 (single isomer, unassigned) [Compound 583]
14 | < 0.1 | A (A denotes >20-fold) |  |  | Cc1cc([C@@H](C)Nc2ccccc2C(=O)O)c2nc(-c3ccc4sc(=O)[nH]c4c3)cc(=O)n2c1 (single isomer, unassigned) [Compound 593]
15 | > 2 | C (C denotes ≤5-fold) |  |  | Cc1cc([C@H](C)Nc2ccccc2S(N)(=O)=O)c2nc(N3Cc4ccccc4C3)cc(=O)n2c1 (single isomer, unassigned) [Compound 606]
16 | < 0.1 | A (A denotes >20-fold) |  |  | Cc1cc([C@@H](C)Nc2ccccc2C(N)=O)c2nc(N3Cc4ccccc4C3)cc(=O)n2c1 (single isomer, unassigned) [Compound 620]
17 |  |  | A (A denotes >20-fold) |  | Cc1cc([C@@H](C)Nc2ccccc2C(=O)O)c2nc(C3Cc4ccccc4[C@@H]3C)cc(=O)n2c1 (single isomer, unassigned) [Compound 652]
18 |  |  |  | < 0.1 | Cc1cc([C@@H](C)Nc2ccccc2C(=O)O)c2nc(N3Cc4ccccc4[C@@H]3C)cc(=O)n2c1 (single isomer, unassigned) [Compound 652]
19 |  |  | A (A denotes >20-fold) | < 0.1 | Cc1cc([C@@H](C)Nc2ccccc2C(=O)O)c2nc(-c3cnc4c(c3)c(C)nn4C)cc(=O)n2c1 (single isomer, unassigned) [Compound 696]
20 |  |  | A (A denotes >20-fold) | < 0.1 | Cc1cc([C@@H](C)Nc2ccccc2C(=O)O)c2nc(N3C[C@@H](C)C(F)(F)[C@@H](C)C3)cc(=O)n2c1 (single isomer, unassigned) [Compound 711]
21 |  |  | A (A denotes >20-fold) | < 0.1 | Cc1cc([C@@H](C)Nc2ccccc2S(N)(=O)=O)c2nc(N3C[C@@H](C)O[C@@H](C)C3)cc(=O)n2c1 (single isomer, unassigned) [Compound 730]
22 |  |  | C (C denotes ≤5-fold) | > 2 | Cc1cc([C@@H](C)Nc2ccccc2C(=O)O)c2nc(-c3ccc4c(c3)c(C)nn4C)cc(=O)n2c1 (single isomer, unassigned) [Compound 739]
23 |  |  | A (A denotes >20-fold) | < 0.1 | Cc1cc([C@H](C)Nc2ccccc2C(=O)O)c2nc(-c3ccc4c(c3)c(C)nn4C)cc(=O)n2c1 (single isomer, unassigned) [Compound 740]
24 |  |  | A (A denotes >20-fold) | < 0.1 | Cc1cc([C@@H](C)Nc2ccccc2C(=O)O)c2nc(-c3cnc4c(c3)c(C)c(C)n4C)c(C)c(=O)n2c1 (single isomer, unassigned) [Compound 804]
25 |  |  | A (A denotes >20-fold) | < 0.1 | Cc1cc([C@@H](C)Nc2ccccc2S(N)(=O)=O)c2nc(N3Cc4ccccc4C3)c(C)c(=O)n2c1 (single isomer, unassigned) [Compound 856]
26 |  |  | A (A denotes >20-fold) | < 0.1 | Cc1cc([C@@H](C)Nc2ccccc2C(=O)O)c2nc(-c3ccc4c(c3)c(C)nn4C3CC3)c(C)c(=O)n2c1 (single isomer, unassigned) [Compound 892]
27 |  |  | A (A denotes >20-fold) | < 0.1 | Cc1cc([C@@H](C)Nc2ccccc2C(=O)O)c2nc(-c3ccc4c(c3)c(C)cn4C)c(C)c(=O)n2c1 (single isomer, unassigned) [Compound 902]
28 |  |  | A (A denotes >20-fold) | < 0.1 | Cc1cc([C@@H](C)Nc2ccccc2C(=O)O)c2nc(-c3ccc(F)c(C#N)c3)c(C)c(=O)n2c1 (single isomer, unassigned) [Compound 947]
29 |  |  | A (A denotes >20-fold) | < 0.1 | Cc1cc([C@@H](C)Nc2ccccc2C(=O)O)c2nc(-c3cccnc3)c(C)c(=O)n2c1 (single isomer, unassigned) [Compound 949]
30 |  |  | A (A denotes >20-fold) | < 0.1 | Cc1cc([C@@H](C)Nc2ccccc2C(=O)O)c2nc(-c3ccnc(C4CC4)c3)c(C)c(=O)n2c1 (single isomer, unassigned) [Compound 953]

Row | SMILES | IC50 [1] [µM] | T47D pAKT S473 HTRF IC50 (H1047R): T47D (H1047R) selectivity over SKBR3 (WT) [2] | T47D pAKT S473 HTRF IC50 (H1047R): T47D (H1047R) selectivity over SKBR3 (WT) [3] | IC50 (EGF stimulation) [µM]
31 | Cc1cc([C@H](C)Nc2ccccc2C(=O)O)c2nc(N3Cc4ccccc4C3)cc(=O)n2c1 (single isomer, unassigned) [Compound 393] | < 0.1 | A (A denotes >20-fold) |  | 
32 | Cc1cc([C@@H](C)Nc2ccccc2C(=O)O)c2nc(N3CC[Si](C)(C)CC3)cc(=O)n2c1 (single isomer, unassigned) [Compound 431] | < 0.1 | A (A denotes >20-fold) |  | 
33 | Cc1cc([C@H](C)Nc2ccccc2-c2ccnnc2)c2nc(N3Cc4ccccc4C3)c(C)c(=O)n2c1 (single isomer, unassigned) [Compound 848] |  |  | A (A denotes >20-fold) | < 0.1
34 | Cc1cc([C@@H](C)Nc2ccccc2C(=O)O)c2nc(-c3cnc(C)c(Cl)c3)c(C)c(=O)n2c1 (single isomer, unassigned) [Compound 951] |  |  | A (A denotes >20-fold) | < 0.1
